# Assay: in vivo
# Conditions: for CL/F: CLz/F; for CL/F / Cmax / Vd/F: n = 6; for Vd/F: Vz/F
# Description: Samples were analyzed by a UPLC-MS/MS system equipped with a triple quadrupole mass spectrometer (Waters Corp., Milford, MA, United States) and Acquity UPLC BEH C18 column (1.7 μm, 2.1 × 50 mm) at 40°C. The mobile phase consisted of acetonitrile (A) and 0.1% formic acid (B) with a linear gradient elution at 0.4 ml/min for 3 min.
# Twelve male Sprague-Dawley rats (230 ± 20 g) were randomly divided into treated and control groups, with 6 in each group. […] The supernatant was mixed with 200 μL of acetonitrile and 20 μL of 0.5 μg/ml diazepam (IS), vortexed for 30 s, centrifuged at 13,000 rpm for 5 min, and the supernatant was injected into the UPLC-MS/MS system for analysis.
# Pharmacokinetic parameters were calculated using DAS software (Version 3.2.8). SPSS software (version 16.0; SPSS Inc., Chicago, IL, United States) was used to analyze the significance of differences between the main pharmacokinetic parameters. p < 0.05 was considered statistically significant. GraphPad (version 8.0; GraphPad Software Inc., San Diego, CA, United States) was used to calculate IC50 and plot the plasma concentration-time curves and inhibition plots (type of inhibition, time- and concentration-dependence).
# [1] = male, Sprague-Dawley, rat, in vivo, po, 10 mg/kg
# [2] = male, Sprague-Dawley, rat, plasma, po, 10 mg/kg, Control group: oral probe cocktail only (10 mg/kg; tolbutamide 1 mg/kg), rats
# [3] = male, Sprague-Dawley, rat, plasma, po, 10 mg/kg, Treated group: oral probe cocktail (10 mg/kg; tolbutamide 1 mg/kg) after 7 days oral poziotinib 5 mg/kg, rats
# [4] = rats, poziotinib 5 mg/kg 7 days vs probes only
# [5] = rats, poziotinib 5 mg/kg 7 days vs probes only (Discussion)
smiles,measurement,setting,value
CC(NC(C)(C)C)C(=O)c1cccc(Cl)c1 (centres unmarked) [Bupropion],AUC(0-t),[1],405 ± 87.3 ng·h/mL
same,AUC(0–∞),[1],421.07 ± 94.21 ng·h/mL
same,MRT(0–t),[1],2.37 ± 0.53 h
same,MRT(0–∞),[1],2.87 ± 1.15 h
same,Tmax,[1],0.46 ± 0.29 h
same,t1/2z,[1],2.51 ± 1.34 h
same,AUC(0-inf),"male, Sprague-Dawley, rat, in vivo, po, 10 mg/kg, AUC(0–∞)",613 ± 130 ng·h/mL
same,MRT last,"male, Sprague-Dawley, rat, in vivo, po, 10 mg/kg, MRT(0–t)",3.33 ± 0.84 h
same,MRT inf,"male, Sprague-Dawley, rat, in vivo, po, 10 mg/kg, MRT(0–∞)",4.34 ± 1.58 h
same,Tmax,"male, Sprague-Dawley, rat, in vivo, po, 10 mg/kg, Tmax",0.75 ± 0.27 h
same,half-life,"male, Sprague-Dawley, rat, in vivo, po, 10 mg/kg, t1/2z",3.35 ± 1.21 h
same,AUC(0-t),"male, Sprague-Dawley, rat, plasma, po, 10 mg/kg",565 ± 92.5 ng·h/mL
same,CL/F,[2],412 mL/min/kg
same,CL/F,[3],281 mL/min/kg
same,Cmax,[2],170 ± 60.1 ng/mL
same,Cmax,[3],173 ± 60.8 ng/mL
same,Vd/F,[2],85.4 ± 37.7 L/kg
same,Vd/F,[3],81.8 ± 38.3 L/kg
same,AUC(0–t) fold higher in treated than control group,[4],1.39 fold
same,AUC(0–∞) fold higher in treated than control group,[4],1.46 fold
same,CLz/F fold lower in treated than control group,[4],1.47 fold
same,MRT(0–t) fold higher in treated than control group,[4],1.41 fold
same,Tmax fold higher in treated than control group,[4],1.63 fold
same,Vz/F fold lower in treated than control group,[4],1.04 fold
same,AUC(0–t) of treated group as fold of control group value,[5],1.40 fold
same,CLz/F of treated group as fold of control group value,[5],0.68 fold

# From PMC7970697, “Inhibition and Induction by Poziotinib of Different Rat Cytochrome P450 Enzymes In Vivo and in an In Vitro Cocktail Method” (Frontiers in Pharmacology, 2021)
